Literature values, collected in US20040101539A1, “Aqueous dispersion of low-melting organic solids” (priority 2002, published 2004).

Settings: at 25° C.

water solubility: 2 ppm
SMILES: CCCCCCCCn1sc(Cl)c(Cl)c1=O [DCOIT, 4,5-dichloro-2-octyl-3(2H)-isothiazolone]
